Experiments:
Chlorella sp. ATCC 7516 = test: Algal efficacy test of dry paint film (modified ASTM 5589, 6-well plates); assay type: cell-based; details: 3 weeks; for Total conc: total biocide concentration in paint taken as minimum inhibitory concentration, pass level ≧75% inhibition, for zoxamide the maximum concentration tested, pass not reached
Method: (§1) Slurries containing 33% antimicrobial active ingredients (Zoxamide and ZnPT) were post added to a white, acrylic/silicone based outdoor paint free of biocides to give a total active ingredient concentration of 10000 and 1000 ppm respectively. These paints were then diluted with an antimicrobial free acrylic/silicone based paint and mixed to prepare targeted concentrations of antimicrobial compounds for the testing. The total biocides concentrations tested were 125, 250, 500, 1000, 2000 and 5000 ppm. After biocides addition or dilution, the paints were mixed 90 seconds with the horse power shaker (AXEL 75M3372/Agitateur SO-10MI) until uniformity was achieved. Paints containing different antimicrobial compounds at the same levels were mixed together in order to obtain the desired ratio of antimicrobial compounds. After one day, the paints were applied to Schleicher & Schuell filter paper at 280 μm wft and dried for 3 days at room temperature avoiding direct exposure to sunlight. Square discs (1.6 cm×1.6 cm) were cut out from each panel and were used as the substrate for algal efficacy tests. This sample size allowed for an agar border when the sample disc was placed into the well of the test plate.
(§2) Algal efficacy was tested according to modified ASTM 5589 which is a standard accelerated test method for determining resistance of various coatings (including paints) to algal defacement. To accommodate for high-throughput screening, this method was scaled down from petri dishes to 6-well plates. Bold Modified Basal Freshwater Nutrient Solution was used as growth medium. A single coated filter paper coupon was placed with a pair of sterile forceps at the center of the agar plug (on top) with the painted surface facing upwards. Algal inoculums were prepared by mixing equal concentrations (1×10^6 cfu/ml) and equal volumes of exponentially growing algae cultures.
(§3) Each well that contains a tested coupon was inoculated with 1750 μl of algal suspensions (1×10^6 cfu/ml) making sure that the whole surface (paint film as well as the agar surrounding it) was evenly covered. The plates were incubated at room temp (21° C.-25° C.) with cyclic exposure to light and dark phases, for a period of three weeks.
(§4) At the end of the three week incubation period, the samples were scored for percent inhibition regarding visible algal growth compared to the blank sample (0% inhibition).
(§5) The SI is calculated based on F. C.
(§6) SI value of <1 in the formula indicates a synergism of the blended biocides exists.
(§7) The minimal targeted inhibition was set at 75%, meaning a coupon with at least 75% algal growth inhibition was considered as a pass.

[1] = tested on: Stichococcus bacillaris SAG 379-1a CCAP 379/1a; test: as above; assay type: cell-based; details: 3 weeks; for Total conc: total biocide concentration in paint taken as minimum inhibitory concentration, pass level ≧75% inhibition, for zoxamide the maximum concentration tested, pass not reached
Method: as §1, §2, §3, §4, §5, §6, §7

[2] = total conc 500 ppm in paint, visible algal growth vs blank

Compound	Total conc (Chlorella sp. ATCC 7516)	% inhibition (Chlorella sp. ATCC 7516; [2])	Total conc [1]	% inhibition [1, 2]	inhibition at 5000 ppm (Chlorella sp. ATCC 7516; 504 h, total conc 5000 ppm in paint, visible algal growth vs blank)	inhibition at 5000 ppm ([1]; Stichococcus bacillaris, 504 h, total conc 5000 ppm in paint, visible algal growth vs blank)
[O-][n+]1ccccc1[S][Zn][S]c1cccc[n+]1[O-] [ZnPT, bis(2-pyridylthio)zinc 1,1′-dioxide]	500 ppm	90%	500 ppm	85%		
CCC(C)(NC(=O)c1cc(Cl)c(C)c(Cl)c1)C(=O)CCl (centres unmarked) [Zoxamide, 3,5-Dichloro-N-(3-chloro-1-ethyl-1-methyl-2-oxopropyl)-4-methylbenzamide]	5000 ppm		5000 ppm		60%	45%

Source: patent US9204654B2, “Synergistic combination of a zoxamide compound and zinc pyrithione for dry film protection” (Rohm and Haas Company, priority 2012, dated 2015)
